Reference: publication PMC12093266, “Synergistic action of two radical SAM enzymes in the biosynthesis of thuricin CD, a two-component sactibiotic” (Chemical Science, 2025)
Numbered stars: 1 amine (or outer) side, 2 acyl side, 3 side chain; on linkers, the order of the positions; unused ones are H or OH. Bridge positions count the residues as written; N and C are the ends. Square brackets hold non-standard residues; d marks the D form. Peptide text beside a SMILES is read from it. X3 = O=C([C@@](Cc1ccc(O)cc1)(N[*:1])[*:3])[*:2]; X5 = C[C@@H](O)[C@@](N[*:1])(C(=O)[*:2])[*:3]; X1 = C[C@@H](O)[C@](N[*:1])(C(=O)[*:2])[*:3]; X4 = O=C([C@](CO)(N[*:1])[*:3])[*:2]; X2 = C[C@](N[*:1])(C(=O)[*:2])[*:3]

Assays:
Bacillus cereus [1] = type: cell-based; settings: B. cereus in LB, 96-well plate, serial dilution, 30 °C, 16 h, OD600; lowest concentration with <10% OD increase over kanamycin well; HPLC-purified peptides in 30% isopropanol; '>' = no inhibition observed at that concentration
Protocol: To test whether the thuricin CD variant obtained in E. coli was bioactive, we performed disk diffusion susceptibility tests with trnα′ and trnβ′ using Bacillus cereus as a test strain. […]
the elution fraction (1: 200 (v/v) ratio), and the resulting solution was then kept overnight for digestion at 4 °C. The resulting solution was heat-inactivated at 95 °C for 10 min followed by freezing at -80 °C for 1 h, and was subjected to centrifugation (13000 × g for 15 min at 4 °C) to remove any precipitates. The resulting solutions containing TrnA or TrnB were directly used in downstream analysis or frozen at -80 °C […]
Production of trnα’ and trnβ’
The modified TrnA and TrnB solutions were mixed with GluC (2 mg/ml stock solution) in a 50:1 (v/v) ratio and the proteolytic reaction was proceeded at room temperature for 2hr. The reaction mixture was subsequently quenched by methanol, and was lyophilized after centrifugation to remove any protein precipitate. The resulting sample was then dissolved in 30% isopropanol and injected onto a reverse phase Phenomenex Aeris PEPTIDE XB-C18 column (250 x 10 mm, 5 μm). […]
as a positive and negative controls, respectively. […] The OD600 was read on a SP-Max 2300A plate reader. […]

Bacillus cereus [2] = experiment: Disk diffusion susceptibility test; type: cell-based; settings: 5 μL of 100 μM peptide (each) on filter paper, BHI agar, 30 °C, 15-20 h
Protocol: In vitro susceptibility test
Briefly, the liquid Brain Heart Infusion (BHI) agar (3.2 % BHI, 1.5% agar) was cooled to 42 °C and seeded with 100 μL of dense overnight culture (approximately 10 8-109 CFU mL -1) of Bacillus cereus. […] Kanamycin and 30% isopropanol were used
Spot 4: 5 μL 0.1 mg/ml kanamycin; Spot 5: 5 μL 30% isopropanol.

SMILES	minimal inhibition concentration (MIC) (Bacillus cereus [1])	inhibition in disk diffusion test (Bacillus cereus [2])
CC[C@H](C)[C@H](N)C(=O)NCC(=O)NCC(=O)N[C@@H](CC(N)=O)C(=O)N[C@@H](C)C(=O)N[C@@H](C)C(=O)N[C@H]1CS[C@](C(=O)N[C@@H](CC(C)C)C(=O)NCC(=O)O)([C@@H](C)O)NC(=O)[C@H](Cc2ccccc2)NC(=O)[C@H](C)NC(=O)[C@]2([C@@H](C)O)NC(=O)CNC(=O)[C@H](C(C)C)NC(=O)[C@H](CC(C)C)NC(=O)[C@]3(CO)NC(=O)CNC(=O)[C@H]([C@@H](C)CC)NC(=O)CNC(=O)[C@H](CCC(=O)O)NC(=O)[C@H](CO)NC(=O)[C@H]([C@@H](C)CC)NC(=O)[C@H](C(C)C)NC(=O)[C@H](CS3)NC(=O)[C@H](CO)NC(=O)CNC(=O)[C@H]([C@@H](C)CC)NC(=O)[C@H](CS2)NC(=O)CNC(=O)[C@H]([C@@H](C)CC)NC(=O)[C@H](C(C)C)NC1=O [trnα′] (H-IGGNAACVIGCIGSCVISEGIG[X4]LVG[X1]AF[X5]LG-OH; thioether 7-30, 11-27, 15-23; N-terminus and C-terminus assumed)	> 50 µM	no activity
CC(C)C[C@H](NC(=O)[C@H](Cc1ccccc1)NC(=O)[C@@]1(Cc2ccc(O)cc2)NC(=O)[C@H](CO)NC(=O)[C@H](C)NC(=O)[C@]2(C)NC(=O)[C@H](C)NC(=O)[C@H](Cc3ccccc3)NC(=O)[C@H](CCC(=O)O)NC(=O)[C@]3([C@@H](C)O)NC(=O)CNC(=O)[C@H](C(C)C)NC(=O)CNC(=O)CNC(=O)[C@H](CO)NC(=O)[C@H](C)NC(=O)[C@H](CC(C)C)NC(=O)[C@H](CS3)NC(=O)[C@H](C(C)C)NC(=O)[C@H]([C@@H](C)O)NC(=O)CNC(=O)[C@H](CS2)NC(=O)[C@H](C)NC(=O)CNC(=O)[C@H](C(C)C)NC(=O)[C@@H](NC(=O)[C@H](C)NC(=O)[C@@H](NC(=O)[C@H](Cc2c[nH]c3ccccc23)NC(=O)CNC(=O)CNC(=O)[C@@H](N)C(C)C)C(C)C)CS1)C(=O)O [trnβ′] (H-VGGWVACVGACGTVCLASGGVG[X1]EFA[X2]AS[X3]FL-OH; thioether 7-30, 11-27, 15-23; N-terminus and C-terminus assumed)	> 50 µM	no activity
